Assays:
Type in all cases: cell-based
H226 = assay: In vitro anti-tumour cell growth inhibition (method of Skehan et al.), H226; settings: H226, non small cell lung cancer; amount which inhibits 50% of the cell growth
Description: (§1) Compounds 1, 2 and 3 were tested in vitro. together with 2 reference compounds used clinically (carboplatin and cisplatin), against MCF-7 and EVSA-T, two breast cancers, WiDr, a colon cancer, IGROV, an ovarian cancer, M19MEL, a melanoma, A498, a renal cancer, and H226, a non small cell lung cancer. The tests were carried out according to the method of Skehan et al, Journal of the National Cancer Institute, 1990; 82: 1107-1112.

A498 = assay: In vitro anti-tumour cell growth inhibition (method of Skehan et al.), A498; settings: A498, renal cancer; amount which inhibits 50% of the cell growth
Description: as §1

EVSA-T = assay: In vitro anti-tumour cell growth inhibition (method of Skehan et al.), EVSA-T; settings: breast cancer, amount which inhibits 50% of the cell growth
Description: as §1

WiDr = assay: In vitro anti-tumour cell growth inhibition (method of Skehan et al.), WiDr; settings: colon cancer, amount which inhibits 50% of the cell growth
Description: as §1

IGROV = assay: In vitro anti-tumour cell growth inhibition (method of Skehan et al.), IGROV; settings: ovarian cancer, amount which inhibits 50% of the cell growth
Description: as §1

M19MEL = assay: In vitro anti-tumour cell growth inhibition (method of Skehan et al.), M19MEL; settings: melanoma, amount which inhibits 50% of the cell growth
Description: as §1

MCF-7 = assay: In vitro anti-tumour cell growth inhibition (method of Skehan et al.), MCF-7; settings: MCF-7, breast cancer; amount which inhibits 50% of the cell growth
Description: as §1

Row | Structure (SMILES) | ID50 (H226) [ng/mL] | ID50 (A498) [ng/mL] | ID50 (EVSA-T) [ng/mL] | ID50 (WiDr) [ng/mL] | ID50 (IGROV) [ng/mL] | ID50 (M19MEL) [ng/mL] | ID50 (MCF-7) [ng/mL]
1 | N.N.O=C([O-])C1(C(=O)[O-])CCC1.[Pt+2] [Carboplatin, carboplatin, reference compound] | 25000 | 18000 | 4500 | 3500 | 2400 | 5500 | 10500
2 | N.N.[Cl][Pt][Cl] [Cisplatin, cisplatin, reference compound] | 3158 | 1200 | 920 | 1550 | 230 | 780 | 1400
3 | CC1(C)OC(=O)CC1C(=O)[O-].CC1(C)OC(=O)CC1C(=O)[O-].CCC[CH2][Sn+2][CH2]CCC (centres unmarked) [Compound 1, Di-n-butyltin diterebate] | 104 | 61 | 25 | 134 | 18 | 61 | 27
4 | CC1(C)OC(=O)CC1C(=O)[O-].CCC[CH2][Sn+]([CH2]CCC)[CH2]CCC [Compound 2, tri-n-butyltin terebate] | 8 | 15 | <3 | 11 | 4 | 11 | 3
5 | CC1(C)OC(=O)CC1C(=O)[O-].c1cc[c]([Sn+]([c]2ccccc2)[c]2ccccc2)cc1 [Compound 3, triphenyltin terebate] | 39 | 42 | <3 | 17 | 19 | 42 | 17

Source: patent publication EP0848008A1, “Organotin compounds and compositions containing these compounds” (PHARMACHEMIE B.V., priority 1996, dated 1998)
